Patent US11535594B2, “Microbiocidal picolinamide derivatives” (Syngenta Participations AG, priority 2017, dated 2022)

How the values were obtained:
[1] = system: Monographella nivalis (Microdochium nivale); assay: Monographella nivalis (Microdochium nivale) / liquid culture (foot rot cereals); assay type: cell-based; details: PDB potato dextrose broth, 24° C., 4-5 days after application, compared to untreated checks, read-out: disease control (inhibition of growth, photometric)
Description: (§1) Monographella nivalis (Microdochium nivale)/Liquid Culture (Foot Rot Cereals) Conidia of the fungus from cryogenic storage are directly mixed into nutrient broth (PDB potato dextrose broth). After placing a (DMSO) solution of test compound into a microtiter plate (96-well format), the nutrient broth containing the fungal spores is added. The test plates are incubated at 24° C. and the inhibition of growth is determined photometrically 4-5 days after application.

[2] = system: Mycosphaerella Graminicola (Septoria tritici); assay: Mycosphaerella graminicola (Septoria tritici) / liquid culture (Septoria blotch); assay type: cell-based; details: Zymoseptoria tritici, PDB potato dextrose broth, 24° C., 4 to 5 days after application, compared to untreated checks, read-out: disease control (inhibition of growth, photometric)
Description: as §1, with “Mycosphaerella Graminicola (Septoria tritici)/Liquid” for “Monographella nivalis (Microdochium nivale)/Liquid”, “(Septoria Blotch)” for “(Foot Rot Cereals)”, “4 to 5” for “4-5”

[3] = system: Mycosphaerella arachidis (Cercospora arachidicola); assay: Mycosphaerella arachidis (Cercospora arachidicola) / liquid culture (early leaf spot); assay type: cell-based; details: PDB potato dextrose broth, 24° C., 4-5 days after application, compared to untreated checks, read-out: disease control (inhibition of growth, photometric)
Description: as §1, with “Mycosphaerella arachidis (Cercospora arachidicola)/Liquid” for “Monographella nivalis (Microdochium nivale)/Liquid”, “(Early Leaf Spot)” for “(Foot Rot Cereals)”

[4] = system: Puccinia Recondite f. Sp. Tritici; assay: Puccinia recondita f. sp. tritici / wheat / leaf disc preventative (brown rust); assay type: in vivo; details: foliar, wheat leaf segments cv. Kanzler, inoculated 1 day after application, assessed 7-9 days after application, compared to untreated, read-out: disease control
Description: Puccinia Recondite f. Sp. Tritici/Wheat/Leaf Disc Preventative (Brown Rust) Wheat leaf segments cv. Kanzler are placed on agar in multiwell plates (24-well format) and sprayed with the formulated test compound diluted in water. The leaf disks are inoculated with a spore suspension of the fungus 1 day after application. The inoculated leaf segments are incubated at 19° C. and 75% rh under a light regime of 12 h light/12 h darkness in a climate cabinet and the activity of a compound is assessed as percent disease control compared to untreated when an appropriate level of disease damage appears in untreated check leaf segments (7-9 days after application).

[5] = system: Phaeosphaeria nodorum (Septoria nodorum); assay: Phaeosphaeria nodorum (Septoria nodorum) / wheat / leaf disc preventative (glume blotch); assay type: in vivo; details: Parastagonospora nodorum, foliar, 120 h, wheat leaf segments cv. Kanzler, inoculated 2 days after application, assessed 5-7 days after application, compared to untreated, read-out: disease control
Description: Phaeosphaeria nodorum (Septoria nodorum)/Wheat/Leaf Disc Preventative (Glume Blotch) Wheat leaf segments cv. Kanzler are placed on agar in a multiwell plate (24-well format) and sprayed with the formulated test compound diluted in water. The leaf disks are inoculated with a spore suspension of the fungus 2 days after application. The inoculated test leaf disks are incubated at 20° C. and 75% rh under a light regime of 12 h light/12 h darkness in a climate cabinet and the activity of a compound is assessed as percent disease control compared to untreated when an appropriate level of disease damage appears in untreated check leaf disks (5-7 days after application).

[6] = system: Magnaporthe grisea (Pyricularia oryzae); assay: whole plant or invertebrate; assay type: in vivo; details: foliar, read-out: disease control
[7] = system: Glomerella Lagenarium (Colletotrichum lagenarium); assay: Glomerella lagenarium (Colletotrichum lagenarium) / liquid culture (anthracnose); assay type: cell-based; details: Colletotrichum orbiculare, PDB potato dextrose broth, 24° C., 3 to 4 days after application, compared to untreated checks, read-out: disease control (inhibition of growth, photometric)
Description: as §1, with “Glomerella Lagenarium (Colletotrichum lagenarium)/Liquid” for “Monographella nivalis (Microdochium nivale)/Liquid”, “(Anthracnose)” for “(Foot Rot Cereals)”, “measured” for “determined”, “3 to 4” for “4-5”

COc1ccnc(C(=O)N[C@@H](C)C(=O)ON(C)C(c2ccc(C(C)(C)C)cc2)c2ccc(C(C)(C)C)cc2)c1O [I.aa.01, [bis(4-tert-butylphenyl)methyl-methyl-amino] (2S)-2-[(3-hydroxy-4-methoxy-pyridine-2-carbonyl)amino]propanoate]
≥ 80%: inhibition at 200 ppm [1] | inhibition at 200 ppm [2]

COc1ccnc(C(=O)N[C@@H](C)C(=O)ON(C)C(c2ccccc2)C(C)C)c1O (stereo partly drawn) [I.d.01, [methyl-(2-methyl-1-phenyl-propyl)amino] (2S)-2-[(3-hydroxy-4-methoxy-pyridine-2-carbonyl)amino] propanoate]
≥ 80%: inhibition at 200 ppm [2] | inhibition at 200 ppm [3] | pest or weed control at 200 ppm [4]

COc1ccnc(C(=O)N[C@@H](C)C(=O)ON(C)C(c2ccccc2)C2CC2)c1O (stereo partly drawn) [I.e.01, [[cyclopropyl(phenyl)methyl]-methyl-amino] (2S)-2-[(3-hydroxy-4-methoxy-pyridine-2-carbonyl)amino] propanoate]
≥ 80%: pest or weed control at 200 ppm [5] | inhibition at 200 ppm [2]

COc1ccnc(C(=O)N[C@@H](C)C(=O)ON(C)C(c2ccc3ccccc3c2)C2CC2)c1O (stereo partly drawn) [I.g.01, [[cyclopropyl(2-naphthyl)methyl]-methyl-amino] (2S)-2-[(3-hydroxy-4-methoxy-pyridine-2-carbonyl)amino] propanoate]
≥ 80%: pest or weed control at 200 ppm [5]

COc1ccnc(C(=O)N[C@@H](C)C(=O)ON(C)C(c2ccccc2)C2CCCC2)c1O (stereo partly drawn) [I.h.01, [[cyclopentyl(phenyl)methyl]-methyl-amino] (2S)-2-[(3-hydroxy-4-methoxy-pyridine-2-carbonyl)amino] propanoate]
≥ 80%: pest or weed control at 200 ppm [5] | pest or weed control at 200 ppm [6] | inhibition at 200 ppm [2] | inhibition at 200 ppm [3] | pest or weed control at 200 ppm [4] | inhibition at 200 ppm [7]

COc1ccnc(C(=O)N[C@@H](C)C(=O)ON(C)C(c2ccccc2)C2CCCCC2)c1O (stereo partly drawn) [I.j.01, [[cyclohexyl(phenyl)methyl]-methyl-amino] (2S)-2-[(3-hydroxy-4-methoxy-pyridine-2-carbonyl)amino] propanoate]
≥ 80%: pest or weed control at 200 ppm [5]

COc1ccnc(C(=O)N[C@@H](C)C(=O)ON(C)C(C)(c2ccccc2)c2ccccc2)c1O [I.m.02, [1,1-diphenylethyl (methyl)amino] (2S)-2-[(3-hydroxy-4-methoxy-pyridine-2-carbonyl)amino] propanoate]
≥ 80%: pest or weed control at 200 ppm [5] | pest or weed control at 200 ppm [6] | inhibition at 200 ppm [2] | inhibition at 200 ppm [3] | pest or weed control at 200 ppm [4]

COc1ccnc(C(=O)N[C@@H](C)C(=O)ON(C)C(c2ccccc2)c2ccc(F)cc2)c1O (stereo partly drawn) [I.n.01, [[(4-fluorophenyl)-phenyl-methyl]-methyl-amino] (2S)-2-[(3-hydroxy-4-methoxy-pyridine-2-carbonyl)amino]propanoate]
≥ 80%: inhibition at 200 ppm [1] | pest or weed control at 200 ppm [5] | pest or weed control at 200 ppm [6] | inhibition at 200 ppm [2] | inhibition at 200 ppm [3] | pest or weed control at 200 ppm [4] | inhibition at 200 ppm [7]

COc1ccnc(C(=O)N[C@@H](C)C(=O)ON(C)C(c2ccccc2)c2ccc(Cl)cc2)c1O (stereo partly drawn) [I.o.01, [[(4-chlorophenyl)-phenyl-methyl]-methyl-amino] (2S)-2-[(3-hydroxy-4-methoxy-pyridine-2-carbonyl)amino]propanoate]
≥ 80%: pest or weed control at 200 ppm [5] | inhibition at 200 ppm [2] | inhibition at 200 ppm [3] | pest or weed control at 200 ppm [4] | inhibition at 200 ppm [7]

COc1ccnc(C(=O)N[C@@H](C)C(=O)ON(C)C(c2ccccc2)c2ccc3ccccc3c2)c1O (stereo partly drawn) [I.r.01, [methyl-[2-naphthyl(phenyl)methyl]amino] (2S)-2-[(3-hydroxy-4-methoxy-pyridine-2-carbonyl)amino] propanoate]
≥ 80%: pest or weed control at 200 ppm [5]

COc1ccnc(C(=O)N[C@@H](C)C(=O)ON(C)C(c2ccc(F)cc2)c2ccc(F)cc2)c1O [I.s.01, [bis(4-fluorophenyl)methyl-methyl-amino] (2S)-2-[(3-hydroxy-4-methoxy-pyridine-2-carbonyl)amino]propanoate]
≥ 80%: inhibition at 200 ppm [1] | pest or weed control at 200 ppm [5] | pest or weed control at 200 ppm [6] | inhibition at 200 ppm [2] | inhibition at 200 ppm [3] | pest or weed control at 200 ppm [4] | inhibition at 200 ppm [7]

COc1ccnc(C(=O)N[C@@H](C)C(=O)ON(C)C(c2ccc(F)cc2)c2ccc(F)cc2)c1OC(C)=O [I.s.13, [bis(4-fluorophenyl)methyl-methyl-amino] (2S)-2-[(3-acetoxy-4-methoxy-pyridine-2-carbonyl)amino]propanoate]
≥ 80%: pest or weed control at 200 ppm [5] | inhibition at 200 ppm [2] | inhibition at 200 ppm [3] | pest or weed control at 200 ppm [4]

COc1ccnc(C(=O)N[C@@H](C)C(=O)ON(C)C(C)(c2ccc(F)cc2)c2ccc(F)cc2)c1OC(C)=O [I.s.14, [1,1-bis(4-fluorophenyl)ethyl-methyl-amino] (2S)-2-[(3-acetoxy-4-methoxy-pyridine-2-carbonyl)amino] propanoate]
≥ 80%: pest or weed control at 200 ppm [5] | pest or weed control at 200 ppm [6] | inhibition at 200 ppm [2] | inhibition at 200 ppm [3]

COc1ccnc(C(=O)N[C@@H](C)C(=O)ON(C)C(C)(c2ccc(F)cc2)c2ccc(Cl)cc2)c1O (stereo partly drawn) [I.t.02, [[1-(4-chlorophenyl)-1-(4-fluorophenyl)ethyl]-methyl-amino] (2S)-2-[(3-hydroxy-4-methoxy-pyridine-2-carbonyl)amino]propanoate]
≥ 80%: inhibition at 200 ppm [1] | inhibition at 200 ppm [2] | inhibition at 200 ppm [3] | pest or weed control at 200 ppm [4] | inhibition at 200 ppm [7]

COc1ccnc(C(=O)N[C@@H](C)C(=O)ON(C)C(c2ccc(Cl)cc2)c2ccc(Cl)cc2)c1O [I.u.01, [bis(4-chlorophenyl)methyl-methyl-amino] (2S)-2-[(3-hydroxy-4-methoxy-pyridine-2-carbonyl)amino] propanoate]
≥ 80%: pest or weed control at 200 ppm [5] | pest or weed control at 200 ppm [6] | inhibition at 200 ppm [2] | inhibition at 200 ppm [3] | pest or weed control at 200 ppm [4] | inhibition at 200 ppm [7]

CCC(c1ccc(Cl)cc1)(c1ccc(Cl)cc1)N(C)OC(=O)[C@H](C)NC(=O)c1nccc(OC)c1O [I.u.03, [1,1-bis(4-chlorophenyl)propyl-methyl-amino] (2S)-2-[(3-hydroxy-4-methoxy-pyridine-2-carbonyl)amino]propanoate]
≥ 80%: inhibition at 200 ppm [1] | inhibition at 200 ppm [2] | inhibition at 200 ppm [3]

COc1ccnc(C(=O)N[C@@H](C)C(=O)ON(C)C(c2cc(C)cc(C)c2)c2cc(C)cc(C)c2)c1O [I.x.01, [bis(3,5-dimethylphenyl)methyl-methyl-amino] (2S)-2-[(3-hydroxy-4-methoxy-pyridine-2-carbonyl)amino]propanoate]
≥ 80%: inhibition at 200 ppm [1] | inhibition at 200 ppm [2] | inhibition at 200 ppm [7]
